Measurements taken from US9834521B2, “Choline kinase inhibitors” (ARIAD Pharmaceuticals, Inc., priority 2013, dated 2017).
Where two headings read alike, the source gives them in different places.

Tests used:
[1] = biological target: T1, truncated form of human Choline kinase α1 that includes residues 75-457 (Homo sapiens, UniProt P35790); experiment: Kinase Assay, coupled (ATP regeneration) LDH/PK assay, NADH absorbance; assay type: biochemical
T1 construct: made in house
Method: Absorbance of NADH (340 nm) was measured over 30 min using a SpectraMax M5 (Molecular Devices). Initial reaction velocity (ΔA340/Δt) was calculated and plotted as a function of inhibitor concentration in a 2-fold dilution series. IC50 values were obtained by fitting the relative velocities to a dose-response model.

ChoKα protein = biological target: T2, ChoKα protein (Homo sapiens, UniProt P35790); experiment: Binding affinity by surface plasmon resonance (SensiQ Pioneer, FastStep)
T2 construct: made in house
T2 sequence (P35790 75-457): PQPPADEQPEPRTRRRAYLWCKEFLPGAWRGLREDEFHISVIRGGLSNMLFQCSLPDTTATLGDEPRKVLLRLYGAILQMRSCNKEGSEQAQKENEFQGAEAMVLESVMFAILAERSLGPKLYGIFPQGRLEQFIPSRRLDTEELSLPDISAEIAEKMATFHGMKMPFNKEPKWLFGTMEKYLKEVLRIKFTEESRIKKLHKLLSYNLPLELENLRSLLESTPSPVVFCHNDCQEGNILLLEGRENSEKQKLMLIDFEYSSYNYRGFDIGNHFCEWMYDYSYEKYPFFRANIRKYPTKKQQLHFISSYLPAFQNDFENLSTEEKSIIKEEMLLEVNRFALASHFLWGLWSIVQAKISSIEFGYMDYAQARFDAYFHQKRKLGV
Method: KD may be measured using surface plasmon resonance (BIAcore®) technology, see, e.g., Panayotou et al, Mol. Cell. […] ChoKα protein was immobilized by standard amine coupling methods on a COOH5 sensor chip installed in a SensiQ Pioneer system. Sensograms were measured using the FastStep™ screen method with an upper concentration of 500 nM. Kinetics and affinity were obtained from fits using a 1:1 binding model.

cancer cell lines = experiment: Cellular Growth Inhibition Assay (CyQuant Cell Proliferation Assay Kit); assay type: cell-based
Method: Cellular Growth Inhibition AssayVehicle or compound treated cells were assessed for cell growth after 72 hours of treatment using the CyQuant® Cell Proliferation Assay Kit (Life Technologies, Grand Island, N.Y.). […] Data are shown as mean (±SD) from ≧2 separate experiments.

[2] = Examples not designated with an asterisk, footnote prints version 1 of the Kinase Assay, read-out: IC50
[3] = SPR, 1:1 binding model, upper concentration 500 nM, read-out: Kd
[4] = 72 hours of treatment, cell line not named, read-out: GI50
[5] = Examples designated with an asterisk (*): version 1 of the Kinase Assay, 200 nM enzyme, read-out: IC50

T1 sequence (P35790 75-457): as above

Row | SMILES | IC50 [1, 2] [nM] | Kd (ChoKα protein; [3]) [nM] | also measured
1 | CN1CCCN(Cc2ccc(-c3ccc(CN4CCCN(C)CC4)cc3C#N)cc2)CC1 [Example 14, 4,4′-bis((4-methyl-1,4-diazepan-1-yl)methyl)-[1,1′-biphenyl]-2-carbonitrile] |  |  | IC50 [1]: < 100 nM; Kd (ChoKα protein): < 50 nM; GI50 (cancer cell lines; 72 h): < 5000 nM
2 | CN1CCCN(Cc2ccc(-c3ccc(C(=O)N4CCCN(C)CC4)cc3)cc2)CC1 [Example 37, (4-methyl-1,4-diazepan-1-yl)(4′-((4-methyl-1,4-diazepan-1-yl)methyl)-[1,1′-biphenyl]-4-yl)methanone] |  |  | IC50 [1]: < 200 nM; Kd (ChoKα protein): < 200 nM; GI50 (cancer cell lines; 72 h): > 20000 nM
3 | CN1CCCN(Cc2ccc(-c3cc(F)c(CN4CCCN(C)CC4)c(F)c3)cc2)CC1 [Example 40, 4,4′-((3,5-difluoro-[1,1′-biphenyl]-4,4′-diyl)bis(methylene))bis(1-methyl-1,4-diazepane)] |  |  | IC50 [1]: < 200 nM; Kd (ChoKα protein): < 60000 nM; GI50 (cancer cell lines; 72 h): < 20000 nM
4 | COc1ccc(-c2ccc(CN3CCCN(C)CC3)cc2)cc1 [Example 128, 1-((4′-methoxy-[1,1′-biphenyl]-4-yl)methyl)-4-methyl-1,4-diazepane] |  |  | IC50 [1]: < 200 nM; Kd (ChoKα protein): < 60000 nM
5 | CN1CCCN(Cc2ccc(-c3ccccc3)c(F)c2)CC1 [Example 134, 1-((2-fluoro-[1,1′-biphenyl]-4-yl)methyl)-4-methyl-1,4-diazepane] |  | < 60000 | IC50 [1, 5]: < 200 nM
6 | CN1CCCN(Cc2ccc(-c3ccc(C(F)(F)F)cc3)cc2)CC1 [Example 137, 1-methyl-4-((4′-(trifluoromethyl)-[1,1′-biphenyl]-4-yl)methyl)-1,4-diazepane] |  |  | IC50 [1]: < 200 nM; Kd (ChoKα protein): < 60000 nM
7 | CN1CCCN(Cc2ccc(-c3ccc(N4CCN(C)CC4)cc3)cc2)CC1 [Example 138, 1-methyl-4-((4′-(4-methylpiperazin-1-yl)-[1,1′-biphenyl]-411)methyl)-1,4-diazepane] |  |  | IC50 [1]: < 200 nM; Kd (ChoKα protein): < 60000 nM
8 | CN1CCCN(Cc2ccc(-n3cncn3)cc2)CC1 [Example 139, 1-(4-(1H-1,2,4-triazol-1-yl)benzyl)-4-methyl-1,4-diazepane] |  | < 60000 | IC50 [1, 5]: < 500 nM
9 | CN1CCCN(Cc2ccc(-c3ccncc3)cc2)CC1 [Example 140, 1-methyl-4-(4-(pyridin-4-yl)benzyl)-1,4-diazepane] |  | < 60000 | IC50 [1, 5]: < 200 nM
10 | CN1CCCN(Cc2ccc(-n3cccn3)cc2F)CC1 [Example 142, 1-(2-fluoro-4-(1H-pyrazol-1-yl)benzyl)-4-methyl-1,4-diazepane] |  | < 60000 | IC50 [1, 5]: < 200 nM
11 | CN1CCCN(Cc2ccc(CN3CCC(N4CCCC4)CC3)cc2)CC1 [Example 148, 1-methyl-4-(4-((4-(pyrrolidin-1-yl)piperidin-1-yl)methyl)benzyl)-1,4-diazepane] |  | < 60000 | IC50 [1, 5]: < 200 nM
12 | CN1CCCN(Cc2ccc(CNc3cccc(C(N)=O)c3)cc2)CC1 [Example 152, 3-((4-((4-methyl-1,4-diazepan-1-yl)methyl)benzyl)amino)benzamide] |  | < 60000 | IC50 [1, 5]: < 200 nM
13 | CN1CCCN(Cc2ccc(CNc3ccc(N4CCN(C)CC4)cc3)cc2)CC1 [Example 153, N-(4-((4-methyl-1,4-diazepan-1-yl)methyl)benzyl)-4-(4-methylpiperazin-1-yl)aniline] |  | < 60000 | IC50 [1, 5]: < 200 nM
14 | COC(=O)c1ccc(-c2ccc(CN3CCCN(C)CC3)cc2)cc1 [Example 158, methyl 4′-((4-methyl-1,4-diazepan-1-yl)methyl)-[1,1′-biphenyl]-4-carboxylate] |  |  | IC50 [1]: < 200 nM; Kd (ChoKα protein): < 60000 nM

More lines, main results first:

Row | IC50 [1, 2] [nM] | Kd (ChoKα protein; [3]) [nM] | SMILES | also measured
15 | < 100 | < 50 | CN1CCCN(Cc2ccc(-c3ccc(CN4CCC(O)CC4)cc3)c(C#N)c2)CC1 [Example 4, 4′-((4-hydroxypiperidin-1-yl)methyl)-4-((4-methyl-1,4-diazepan-1-yl)methyl)-[1,1′-biphenyl]-2-carbonitrile] | GI50 (cancer cell lines; [4]): < 20000 nM
16 | < 200 | < 60000 | CN1CCCN(Cc2ccc(-c3ccc(C(=O)NC4CC4)cc3)c(C#N)c2)CC1 [Example 32, 2′-cyano-N-cyclopropyl-4′-((4-methyl-1,4-diazepan-1-yl)methyl)-[1,1′-biphenyl]-4-carboxamide] | GI50 (cancer cell lines; [4]): < 20000 nM
17 | < 200 | < 200 | CN1CCCN(Cc2ccc(-c3ccc(C(=O)N4CCCN(C)CC4)cc3)c(C#N)c2)CC1 [Example 33, 4-((4-methyl-1,4-diazepan-1-yl)methyl)-4′-(4-methyl-1,4-diazepane-1-carbonyl)-[1,1′-biphenyl]-2-carbonitrile] | GI50 (cancer cell lines; [4]): > 20000 nM
18 | < 200 | < 200 | CN1CCCN(Cc2ccc(-c3ccc(C(=O)N4CCCN(C)CC4)cc3-c3ccncc3)c(C#N)c2)CC1 [Example 72, 4-((4-methyl-1,4-diazepan-1-yl)methyl)-4′-(4-methyl-1,4-diazepane-1-carbonyl)-2′-(pyridin-4-yl)-[1,1′-biphenyl]-2-carbonitrile] | 
19 | < 100 | < 50 | CN1CCCN(Cc2ccc(-c3ccc(C(=O)N4CCCN(C)CC4)cc3-c3cccc([N+](=O)[O-])c3)c(C#N)c2)CC1 [Example 77, 4-((4-methyl-1,4-diazepan-1-yl)methyl)-4′-(4-methyl-1,4-diazepane-1-carbonyl)-3″-nitro-[1,1′:2′,1″-terphenyl]-2-carbonitrile] | 
20 | < 100 | < 50 | CN1CCCN(Cc2ccc(-c3ccc(C(=O)N4CCCN(C)CC4)cc3-c3cc(F)cc(F)c3)c(C#N)c2)CC1 [Example 78, 3″,5″-difluoro-4-((4-methyl-1,4-diazepan-1-yl)methyl)-4′-(4-methyl-1,4-diazepane-1-carbonyl)-[1,1′:2′,1″-terphenyl]-2-carbonitrile] | 
21 | < 100 | < 50 | CCOc1ccc(-c2cc(C(=O)N3CCCN(C)CC3)ccc2-c2ccc(CN3CCCN(C)CC3)cc2C#N)cc1 [Example 79, 4″-ethoxy-4-((4-methyl-1,4-diazepan-1-yl)methyl)-4′-(4-methyl-1,4-diazepane-1-carbonyl)-[1,1′1:2′,1″-terphenyl]-2-carbonitrile] | 
22 | < 100 | < 50 | CN1CCCN(Cc2ccc(-c3ccc(C(=O)N4CCCN(C)CC4)cc3-c3ccc(CN4CCOCC4)cc3)c(C#N)c2)CC1 [Example 80, 4-((4-methyl-1,4-diazepan-1-yl)methyl)-4′-(4-methyl-1,4-diazepane-1-carbonyl)-4″-(morpholinomethyl)-[1,1′:2′,1″-terphenyl]-2-carbonitrile] | 
23 | < 100 | < 50 | COc1ccc(-c2cc(C(=O)N3CCCN(C)CC3)ccc2-c2ccc(CN3CCCN(C)CC3)cc2C#N)cc1OC [Example 81, 3″,4″-dimethoxy-4-((4-methyl-1,4-diazepan-1-yl)methyl)-4′-(4-methyl-1,4-diazepane-1-carbonyl)-[1,1′1:2′,1″-terphenyl]-2-carbonitrile] | 
24 | < 100 | < 100 | CN1CCCN(Cc2ccc(-c3ccc(S(=O)(=O)N4CCN(C)CC4)cc3)c(C#N)c2)CC1 [Example 84, 4-((4-methyl-1,4-diazepan-1-yl)methyl)-4′-((4-methylpiperazin-1-yl)sulfonyl)-[1,1′-biphenyl]-2-carbonitrile] | 
25 | < 100 | < 100 | CN1CCCN(Cc2ccc(-c3ccc(S(=O)(=O)NCCO)cc3)c(C#N)c2)CC1 [Example 85, 2′-cyano-N-(2-hydroxyethyl)-4′-((4-methyl-1,4-diazepan-1-yl)methyl)-[1,1′-biphenyl]-4-sulfonamide] | 
26 | < 200 | < 200 | CN1CCCN(Cc2ccc(-c3ccc(S(=O)(=O)N4CCOCC4)cc3)c(C#N)c2)CC1 [Example 88, 4-((4-methyl-1,4-diazepan-1-yl)methyl)-4′-(morpholinosulfonyl)-[1,1′-biphenyl]-2-carbonitrile] | 
27 | < 200 | < 200 | CN1CCCN(Cc2ccc(-c3ccc(NC(N)=O)cc3)c(C#N)c2)CC1 [Example 90, 1-(2′-cyano-4′-((4-methyl-1,4-diazepan-1-yl)methyl)-[1,1′-biphenyl]-4-yl)urea] | 
28 | < 200 | < 200 | CN1CCCN(Cc2ccc(-c3ccc(C(=O)NN)cc3)c(C#N)c2)CC1 [Example 91, 2′-cyano-4′-((4-methyl-1,4-diazepan-1-yl)methyl)-[1,1′-biphenyl]-4-carbohydrazide] | 
29 | < 200 | < 60000 | CN1CCCN(Cc2ccc(-c3ccc(CC#N)cc3)c(C#N)c2)CC1 [Example 93, 4′-(cyanomethyl)-4-((4-methyl-1,4-diazepan-1-yl)methyl)-[1,1′-biphenyl]-2-carbonitrile] | 
30 | < 200 | < 200 | CN1CCCN(Cc2ccc(-c3ccc(S(C)(=O)=O)cc3)c(C#N)c2)CC1 [Example 94, 4-((4-methyl-1,4-diazepan-1-yl)methyl)-4′-(methylsulfonyl)-[1,1′-biphenyl]-2-carbonitrile] | 
31 | < 200 | < 200 | CNS(=O)(=O)c1ccc(-c2ccc(CN3CCCN(C)CC3)cc2C#N)c(C)c1 [Example 97, 2′-cyano-N,2-dimethyl-4′-((4-methyl-1,4-diazepan-1-yl)methyl)-[1,1′-biphenyl]-4-sulfonamide] | 
32 | < 100 | < 100 | CNC(=O)Nc1ccc(-c2ccc(CN3CCCN(C)CC3)cc2C#N)cc1 [Example 114, 1-(2′-cyano-4′-((4-methyl-1,4-diazepan-1-yl)methyl)-[1,1′-biphenyl]-4-yl)-3-methylurea] | 
